The results in this text go back to patent publication US12702148B2, “Acetylcholinesterase inhibitor” (Taiko Pharmaceutical Co., Ltd., priority 2019, dated 2026).

Read-outs that look alike come from different tables or passages of the source.

The target of assay [1] is T1, Acetylcholinesterase from Electrophorus electricus (electric eel) Type VI-S (Electrophorus electricus, UniProt O42275).
T1 construct: purchased Sigma-Aldrich C3389-500UN
The assay can be described thus: biochemical. The procedure: 2. Reagents 2.1 AchE Enzyme • Name: Acetylcholinesterase from Electrophorus electricus (electric eel) Type VI-S • Serial number: C3389-500UN • Obtained from: Sigma-Aldrich • Storage condition: Frozen (−20° C.) 2.2 AchE Activity Measurement Kit • Name: Acetylcholinesterase Activity Assay Kit • Serial number: MAK119 • Obtained from: Sigma-Aldrich • Storage condition: Room temperature 2.3 Solvent • Name: UltraPure 1M Tris-HCL pH 7.5 • Serial number: 15567-027 • Obtained from: Invitrogen • Storage condition: Refrigerated (4° C.) 2.4 Water
AchE enzyme (lyophilized powder) 2 mg (500 units) was dissolved in 2 mL of Tris-HCL Buffer pH 7.5 prepared to a concentration of 20 mM. This was then further diluted 30-folds with ultrapure water to prepare to a concentration of 33.3 μg/mL.
Two mg of the reagent included in the AchE activity measurement kit was weighed, dissolved in 200 mL of the assay buffer, and the working solution was obtained.
Measurement was carried out according to the following order. • 1) AchE enzyme solution (33.3 μg/mL) is mixed with test substance 1 solution (5 mg/mL) and ultrapure water according to the following Table 1.
(§1) • 2) The mixture is allowed to react in a thermobath at 37° C. for 10 minutes. • 3) 200 μL each of ultrapure water is added to 4 wells (n=4) of a 96-well microplate (blank wells.) • 4) 200 μL each of the calibrator included in the AchE activity measurement kit is added to 4 wells (n=4) different from those in Procedure 3) (calibrator wells.) • 5) 190 μL each of the working solution is added to yet another 24 wells (6 samples×4) (sample wells.) • 6) To the wells with the working solution added, 10μ each of post-reaction solutions No. 1-6 obtained in Procedure 2) is added to 4 wells (n=4) each. • 7) The plates are lightly tapped to allow mixing, reacted for 2 minutes at room temperature, and then absorbance at 412 nm is read with a microplate reader. • 8) This is allowed to react for another 8 minutes at room temperature (a total of 10 minutes), and then the absorbance at 412 nm is measured.
Measurement was carried out according to the following order. • 1) AchE enzyme solution (33.3 μg/mL) is mixed with test substance 2 solution (800 μg/mL) and ultrapure water according to the following Table 2.
as §1, with “measured. 6. Data Processing” for “measured.”
Employing the absorbance values obtained, the AchE activity (units/mL) was calculated by the formula below, and the average value and standard deviation of the AchE activity (units/mL) for each test substance at each concentration was calculated.
[formula] • (A412) final: Absorbance value at 412 nm after 10 minutes of reaction • (A412) initial Absorbance value at 412 nm after 2 minutes of reaction • n: Dilution coefficient (n=120) 0.2: Coefficient by Calibrator
Moreover, employing the AchE activity for the test substance at each concentration, One phase exponential decay curve was obtained by GraphPad Prism, and the IC50 value (mg/mL) was calculated.

For assay [2], the target named is T1, Acetylcholinesterase from Electrophorus electricus (electric eel) Type VI-S. The assay is classed as biochemical. The note with it: n=3, average value.

What is called IC50 is the concentration that gives 50% inhibition.

T1 sequence (O42275 24-633): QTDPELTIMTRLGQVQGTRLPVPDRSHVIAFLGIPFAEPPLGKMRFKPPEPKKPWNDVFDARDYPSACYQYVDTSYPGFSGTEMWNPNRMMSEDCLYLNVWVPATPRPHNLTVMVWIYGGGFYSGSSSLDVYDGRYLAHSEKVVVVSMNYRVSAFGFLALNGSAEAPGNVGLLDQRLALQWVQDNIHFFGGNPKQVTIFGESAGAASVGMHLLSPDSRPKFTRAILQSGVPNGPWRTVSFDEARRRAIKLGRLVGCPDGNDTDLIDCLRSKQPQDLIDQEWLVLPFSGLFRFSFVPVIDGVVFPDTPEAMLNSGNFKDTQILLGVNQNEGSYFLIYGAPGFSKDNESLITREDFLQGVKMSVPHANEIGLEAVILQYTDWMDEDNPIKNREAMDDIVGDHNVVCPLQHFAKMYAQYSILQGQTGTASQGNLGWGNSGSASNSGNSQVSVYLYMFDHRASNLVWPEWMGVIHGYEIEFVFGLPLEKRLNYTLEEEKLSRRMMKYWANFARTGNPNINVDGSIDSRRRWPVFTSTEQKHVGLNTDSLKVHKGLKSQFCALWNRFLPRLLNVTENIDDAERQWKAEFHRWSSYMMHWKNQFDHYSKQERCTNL

As for `COc1ccccc1O` [GUA, Guaiacol], the IC50 in assay [1] (nonlinear regression curve of AchE activity at each concentration (GraphPad Prism), read-out: IC50 value (converted)) was 137 mM; in assay [1] (regression curve by GraphPad Prism, Example 2, read-out: IC50), 17 mM. The inhibition at 200 µM in assay [1] (read-out: Inhibitory rate) turned out to be 3%. For the same compound, in assay [1] (read-out: Inhibitory rate), the inhibition at 700 µM is 3.9%. The inhibition at 2000 µM in assay [1] (read-out: Inhibitory rate) turned out to be 2.2%. Further, the inhibition at 7000 µM in assay [1] (read-out: Inhibitory rate) was found to be 19.9%. For the same compound, the inhibition at 20000 µM in assay [1] (read-out: Inhibitory rate) was 58.8%. The AchE activity in assay [2] (GUA concentration 0.2 mM) is listed as 24.89 units/mL; in assay [2] (GUA concentration 0.7 mM), 24.64 units/mL; in assay [2] (GUA concentration 2 mM) it was 25.09 units/mL; in assay [2] (GUA concentration 7 mM), 20.54 units/mL; in assay [2] (GUA concentration 20 mM) it was 10.56 units/mL.
